Type in all cases: in vivo
Details in all cases: 5 mg/kg oral gavage

For one assay, the target named is FAAH (Mus musculus (Mouse), UniProt O08914). The assay can be described thus: Mouse brain proteomes from inhibitor treated mice (oral gavage, sacrifice 4 h after administration, ABPP analysis), FAAH. The gist of the method:
(§1)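 Wild-type C57Bl/6J mice were dosed by oral gavage in vehicle (e.g. PEG400/Ethanol/PBS 7/2/1) and sacrificed 4 h later. Brain proteomes were analysed by activity-based protein profiling; values are % inhibition at 5 mg/kg.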

For another assay, the target named is ABHD6 (Mus musculus (Mouse), UniProt Q8R2Y0). Kind of assay: Mouse brain proteomes from inhibitor treated mice (oral gavage, sacrifice 4 h after administration, ABPP analysis), ABHD6. The gist of the method:
as §1

The next assay concerns the target MAGL (Mus musculus (Mouse), UniProt O35678). The assay can be described thus: Mouse brain proteomes from inhibitor treated mice (oral gavage, sacrifice 4 h after administration, ABPP analysis). On the procedure:
Preparation of Mouse Brain Proteomes from Inhibitor Treated Mice.
Inhibitors were administered to wild-type C57Bl/6J by oral gavage in a vehicle, e.g. PEG400/Ethanol/PBS (7/2/1). Each animal was sacrificed 4 h following administration and brain proteomes were prepared and analyzed according to previously established methods (See Niphakis, M. J., et al. (2011) ACS Chem. Neurosci. and Long, J. Z., et al. Nat. Chem. Biol. 5:37-44). Data from this assay is shown in Table 2 (% inhibition at 5 mg/kg).

Each structure is given as a SMILES string.

Chain of ABHD6 (Q8R2Y0 whole entry): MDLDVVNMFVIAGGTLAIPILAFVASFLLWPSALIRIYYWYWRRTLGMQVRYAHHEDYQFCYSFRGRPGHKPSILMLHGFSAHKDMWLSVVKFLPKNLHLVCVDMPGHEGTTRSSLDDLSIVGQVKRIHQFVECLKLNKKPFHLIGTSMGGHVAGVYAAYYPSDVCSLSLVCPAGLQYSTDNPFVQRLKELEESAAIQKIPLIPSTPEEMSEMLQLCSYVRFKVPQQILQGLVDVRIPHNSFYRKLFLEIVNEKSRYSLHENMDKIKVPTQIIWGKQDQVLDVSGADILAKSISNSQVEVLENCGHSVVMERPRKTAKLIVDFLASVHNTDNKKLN
Chain of MAGL (O35678 whole entry): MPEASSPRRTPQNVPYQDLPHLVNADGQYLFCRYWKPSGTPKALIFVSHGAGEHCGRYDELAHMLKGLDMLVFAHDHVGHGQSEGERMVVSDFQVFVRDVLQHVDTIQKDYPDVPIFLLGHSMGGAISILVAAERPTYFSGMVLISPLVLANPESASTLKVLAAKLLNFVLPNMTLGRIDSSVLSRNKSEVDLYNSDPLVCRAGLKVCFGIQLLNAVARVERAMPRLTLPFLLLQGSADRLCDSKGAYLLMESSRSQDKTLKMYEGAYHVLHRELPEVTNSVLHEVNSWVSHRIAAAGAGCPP
Chain of FAAH (O08914 whole entry): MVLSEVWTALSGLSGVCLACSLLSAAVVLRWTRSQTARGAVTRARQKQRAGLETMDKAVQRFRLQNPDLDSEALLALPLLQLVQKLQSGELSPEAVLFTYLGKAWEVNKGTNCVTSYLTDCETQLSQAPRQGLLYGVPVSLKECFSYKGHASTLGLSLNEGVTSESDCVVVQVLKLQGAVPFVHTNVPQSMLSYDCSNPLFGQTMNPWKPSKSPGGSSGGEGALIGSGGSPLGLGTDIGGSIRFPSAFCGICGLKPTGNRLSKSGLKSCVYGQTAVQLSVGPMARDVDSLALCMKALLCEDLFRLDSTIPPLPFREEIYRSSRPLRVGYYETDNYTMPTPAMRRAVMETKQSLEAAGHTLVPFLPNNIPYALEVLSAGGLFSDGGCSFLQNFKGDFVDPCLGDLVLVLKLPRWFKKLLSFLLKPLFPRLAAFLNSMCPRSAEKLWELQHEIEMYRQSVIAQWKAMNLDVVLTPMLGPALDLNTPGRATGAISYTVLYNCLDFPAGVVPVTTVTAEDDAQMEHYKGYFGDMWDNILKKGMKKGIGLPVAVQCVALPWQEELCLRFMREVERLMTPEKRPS

`O=C(OC(C(F)(F)F)C(F)(F)F)N1CCC2(CCCN2Cc2cc(N3CCS(=O)(=O)CC3)cc(C(F)(F)F)c2)CC1` [Example 42, 1,1,1,3,3,3-Hexafluoropropan-2-yl 1-(3-(1,1-dioxidothiomorpholino)-5-(trifluoromethyl)benzyl)-1,8-diazaspiro[4.5]decane-8-carboxylate]: at FAAH, the “FAAH % Inh 5 mg/kg (mouse)” value is on record as “# (# is < 25%)”. The “ABHD6 % Inh 5 mg/kg (mouse)” value at ABHD6 is given as “# (# is < 25%)”. On MAGL, the “MAGL % Inh 5 mg/kg (mouse)” value was “### (### is ≥ 75%)”.
With `O=C(OC(C(F)(F)F)C(F)(F)F)N1CCC2(CCCN2Cc2cc(N3CC4COCC4C3)cc(C(F)(F)F)c2)CC1` (stereo not drawn) [Example 46, 1,1,1,3,3,3-Hexafluoropropan-2-yl 1-(3-(tetrahydro-1H-furo[3,4-c]pyrrol-5(3H)-yl)-5-(trifluoromethyl)benzyl)-1,8-diazaspiro[4.5]decane-8-carboxylate], the “FAAH % Inh 5 mg/kg (mouse)” value on FAAH is recorded as “# (# is < 25%)”. In addition, on ABHD6, the “ABHD6 % Inh 5 mg/kg (mouse)” value is recorded as “# (# is < 25%)”. Also, the “MAGL % Inh 5 mg/kg (mouse)” value at MAGL is reported as “### (### is ≥ 75%)”.
As for `O=C(OC(C(F)(F)F)C(F)(F)F)N1CCC2(CCCN2Cc2cc(N3CCC3)cc(C(F)(F)F)c2)CC1` [Example 47, 1,1,1,3,3,3-Hexafluoropropan-2-yl 1-(3-(azetidin-1-yl)-5-(trifluoromethyl)benzyl)-1,8-diazaspiro[4.5]decane-8-carboxylate], the “FAAH % Inh 5 mg/kg (mouse)” value on FAAH was “# (# is < 25%)”. Also, the “ABHD6 % Inh 5 mg/kg (mouse)” value at ABHD6 is given as “# (# is < 25%)”. Also, at MAGL, the “MAGL % Inh 5 mg/kg (mouse)” value is listed as “### (### is ≥ 75%)”.
On to `CC1(C)CC2(CCN(C(=O)OC(C(F)(F)F)C(F)(F)F)CC2)CN1Cc1ccc(C(F)(F)F)cc1N1CCC2(CCOCC2)C1` [Example 52, 1,1,1,3,3,3-Hexafluoropropan-2-yl 2-(2-(8-oxa-2-azaspiro[4.5]decan-2-yl)-4-(trifluoromethyl)benzyl)-3,3-dimethyl-2,8-diazaspiro[4.5]decane-8-carboxylate], for which the “FAAH % Inh 5 mg/kg (mouse)” value at FAAH was “# (# is < 25%)”. The “ABHD6 % Inh 5 mg/kg (mouse)” value at ABHD6 is recorded as “# (# is < 25%)”. Also, at MAGL, the “MAGL % Inh 5 mg/kg (mouse)” value is on record as “# (# is < 25%)”.
With `O=C(OC(C(F)(F)F)C(F)(F)F)N1CCC2(CCCN2Cc2cccc(Cl)c2)CC1` [Example 61, 1,1,1,3,3,3-Hexafluoropropan-2-yl 1-(3-chlorobenzyl)-1,8-diazaspiro[4.5]decane-8-carboxylate], the “FAAH % Inh 5 mg/kg (mouse)” value on FAAH was “### (### is ≥ 75%)”. Also, the “ABHD6 % Inh 5 mg/kg (mouse)” value at ABHD6 is on record as “# (# is < 25%)”. Further, the “MAGL % Inh 5 mg/kg (mouse)” value at MAGL is “### (### is ≥ 75%)”.
With `O=C(OC(C(F)(F)F)C(F)(F)F)N1CCC2(CCCN2Cc2ccc(C(F)(F)F)cc2N2CCOCC2)CC1` [Example 67, 1,1,1,3,3,3-Hexafluoropropan-2-yl 1-(2-morpholino-4-(trifluoromethyl)benzyl)-1,8-diazaspiro[4.5]decane-8-carboxylate], at FAAH, the “FAAH % Inh 5 mg/kg (mouse)” value is reported as “# (# is < 25%)”. The “ABHD6 % Inh 5 mg/kg (mouse)” value at ABHD6 is on record as “# (# is < 25%)”. For the same compound, at MAGL, the “MAGL % Inh 5 mg/kg (mouse)” value was “### (### is ≥ 75%)”.
As for `CN1CCCc2ccc(CN3CCCC34CCN(C(=O)OC(C(F)(F)F)C(F)(F)F)CC4)cc21` [Example 68, 1,1,1,3,3,3-Hexafluoropropan-2-yl 1-((1-methyl-1,2,3,4-tetrahydroquinolin-7-yl)methyl)-1,8-diazaspiro[4.5]decane-8-carboxylate], the “FAAH % Inh 5 mg/kg (mouse)” value at FAAH is reported as “# (# is < 25%)”. Besides, the “ABHD6 % Inh 5 mg/kg (mouse)” value on ABHD6 is “# (# is < 25%)”. In addition, on MAGL, the “MAGL % Inh 5 mg/kg (mouse)” value is “### (### is ≥ 75%)”.
On to `O=C(OC(C(F)(F)F)C(F)(F)F)N1CCC2(CCCN2Cc2ccc(Cl)cc2N2CC3CCC(C2)O3)CC1` [Example 75, 1,1,1,3,3,3-Hexafluoropropan-2-yl 1-(2-(8-oxa-3-azabicyclo[3.2.1]octan-3-yl)-4-chlorobenzyl)-1,8-diazaspiro[4.5]decane-8-carboxylate], for which the “FAAH % Inh 5 mg/kg (mouse)” value at FAAH was “# (# is < 25%)”. The “ABHD6 % Inh 5 mg/kg (mouse)” value on ABHD6 is “# (# is < 25%)”. Moreover, on MAGL, the “MAGL % Inh 5 mg/kg (mouse)” value was “### (### is ≥ 75%)”.
Take `O=C(OC(C(F)(F)F)C(F)(F)F)N1CCC2(CCCN2Cc2ccc(Cl)cc2N2CCCC2)CC1` [Example 76, 1,1,1,3,3,3-Hexafluoropropan-2-yl 1-(4-chloro-2-(pyrrolidin-1-yl)benzyl)-1,8-diazaspiro[4.5]decane-8-carboxylate]: the “FAAH % Inh 5 mg/kg (mouse)” value on FAAH is “# (# is < 25%)”. Further, on ABHD6, the “ABHD6 % Inh 5 mg/kg (mouse)” value is given as “# (# is < 25%)”. The “MAGL % Inh 5 mg/kg (mouse)” value at MAGL was “### (### is ≥ 75%)”.
`O=C(OC(C(F)(F)F)C(F)(F)F)N1CCC2(CCCN2Cc2ccc(Cl)cc2N2CCOCC2)CC1` [Example 77, 1,1,1,3,3,3-Hexafluoropropan-2-yl 1-(4-chloro-2-morpholinobenzyl)-1,8-diazaspiro[4.5]decane-8-carboxylate]: at FAAH, the “FAAH % Inh 5 mg/kg (mouse)” value was “# (# is < 25%)”. The “ABHD6 % Inh 5 mg/kg (mouse)” value at ABHD6 is “# (# is < 25%)”. Further, the “MAGL % Inh 5 mg/kg (mouse)” value at MAGL is “### (### is ≥ 75%)”.
As for `O=C(OC(C(F)(F)F)C(F)(F)F)N1CCC2(CCCN2Cc2cccc(N3CCOCC3)c2Cl)CC1` [Example 79, 1,1,1,3,3,3-Hexafluoropropan-2-yl 1-(2-chloro-3-morpholinobenzyl)-1,8-diazaspiro[4.5]decane-8-carboxylate], the “FAAH % Inh 5 mg/kg (mouse)” value on FAAH was “# (# is < 25%)”. For the same compound, the “ABHD6 % Inh 5 mg/kg (mouse)” value on ABHD6 was “# (# is < 25%)”. Further, the “MAGL % Inh 5 mg/kg (mouse)” value on MAGL is on record as “### (### is ≥ 75%)”.
Consider `O=C(OC(C(F)(F)F)C(F)(F)F)N1CCC2(CCCN2Cc2cccc(N3CCCC3)c2Cl)CC1` [Example 81, 1,1,1,3,3,3-Hexafluoropropan-2-yl 1-(2-chloro-3-(pyrrolidin-1-yl)benzyl)-1,8-diazaspiro[4.5]decane-8-carboxylate], for which, on FAAH, the “FAAH % Inh 5 mg/kg (mouse)” value is “# (# is < 25%)”. On ABHD6, the “ABHD6 % Inh 5 mg/kg (mouse)” value was “# (# is < 25%)”. At MAGL, the “MAGL % Inh 5 mg/kg (mouse)” value was “### (### is ≥ 75%)”.
`O=C(OC(C(F)(F)F)C(F)(F)F)N1CCC2(CCCN2Cc2cccc(N3CC4CCC(C3)O4)c2Cl)CC1` [Example 82, 1,1,1,3,3,3-Hexafluoropropan-2-yl 1-(3-(8-oxa-3-azabicyclo[3.2.1]octan-3-yl)-2-chlorobenzyl)-1,8-diazaspiro[4.5]decane-8-carboxylate]: the “FAAH % Inh 5 mg/kg (mouse)” value at FAAH is listed as “# (# is < 25%)”. Besides, the “ABHD6 % Inh 5 mg/kg (mouse)” value at ABHD6 is reported as “# (# is < 25%)”. The “MAGL % Inh 5 mg/kg (mouse)” value on MAGL is recorded as “### (### is ≥ 75%)”.
As to `Cc1c(CN2CCCC23CCN(C(=O)OC(C(F)(F)F)C(F)(F)F)CC3)cccc1N1CCCCC1` [Example 84, 1,1,1,3,3,3-Hexafluoropropan-2-yl 1-(2-methyl-3-(piperidin-1-yl)benzyl)-1,8-diazaspiro[4.5]decane-8-carboxylate], on FAAH, the “FAAH % Inh 5 mg/kg (mouse)” value is “# (# is < 25%)”. In addition, on ABHD6, the “ABHD6 % Inh 5 mg/kg (mouse)” value is “# (# is < 25%)”. Besides, the “MAGL % Inh 5 mg/kg (mouse)” value at MAGL is reported as “### (### is ≥ 75%)”.
For the compound `Cc1c(CN2CCCC23CCN(C(=O)OC(C(F)(F)F)C(F)(F)F)CC3)cccc1N1CCCC1` [Example 85, 1,1,1,3,3,3-Hexafluoropropan-2-yl 1-(2-methyl-3-(pyrrolidin-1-yl)benzyl)-1,8-diazaspiro[4.5]decane-8-carboxylate], the “FAAH % Inh 5 mg/kg (mouse)” value on FAAH is on record as “# (# is < 25%)”. Also, the “ABHD6 % Inh 5 mg/kg (mouse)” value at ABHD6 is “# (# is < 25%)”. For the same compound, on MAGL, the “MAGL % Inh 5 mg/kg (mouse)” value is “### (### is ≥ 75%)”.

For the origin of these results see patent US10781211B2, “Spirocycle compounds and methods of making and using same” (Lundbeck La Jolla Research Center, Inc., priority 2016, dated 2020).
